Publication PMC6270420, “Antibacterial Activity of Salicylanilide 4-(Trifluoromethyl)benzoates” (Molecules, 2013)
In brackets after ≈: the same amount, converted by molar mass. Where two headings read alike, the source gives them in different places.

How the values were obtained:
[1] = test system: Gram-positive cocci including MRSA; experiment: Antibacterial microdilution, summary for Gram-positive cocci; type: cell-based; conditions: Staphylococcus aureus, read-out: MICs against Gram-positive cocci
Method: (§1) The in vitro antibacterial activity was assayed against eight Gram-positive and Gram-negative strains: Staphylococcus aureus CCM 4516/08, methicillin-resistant Staphylococcus aureus H 5996/08 (MRSA), Staphylococcus epidermidis H 6966/08, Enterococcus sp. J 14365/08; Escherichia coli CCM 4517, Klebsiella pneumoniae D 11750/08, ESBL-positive Klebsiella pneumoniae J 14368/08, and Pseudomonas aeruginosa CCM 1961.
(§2) The microdilution broth method modified according to standard M07-A07 in Mueller-Hinton broth (HiMedia Laboratories, Mumbai, India) adjusted to pH 7.4 (±0.2) was used. The tested compounds were dissolved in DMSO to the final concentrations ranging from […]. Benzylpenicillin (penicillin G) was used as a comparative drug. Bacterial inoculum in sterile water was prepared to match 0.5 McFarland scale ([…]). The minimum inhibitory concentrations were assayed as 90% (IC90) or higher reduction of growth when compared to the control. The determination of results was performed visually and spectrophotometrically (at 540 nm). The values of MICs were determined after 24 and 48 h of incubation in the darkness at 35 °C (±0.1) in a humid atmosphere.

[2] = test system: Mtb. 53/2009; experiment: microbe, parasite or virus in culture; type: cell-based; conditions: Mycobacterium tuberculosis, read-out: MIC Mtb. 53/2009
[3] = test system: Mtb. 7357/1988; experiment: microbe, parasite or virus in culture; type: cell-based; conditions: Mycobacterium tuberculosis, read-out: MIC Mtb. 7357/1988
[4] = test system: Mtb. 234/2005; experiment: microbe, parasite or virus in culture; type: cell-based; conditions: Mycobacterium tuberculosis, read-out: MIC Mtb. 234/2005
[5] = test system: Mtb. 9449/2006; experiment: microbe, parasite or virus in culture; type: cell-based; conditions: Mycobacterium tuberculosis, read-out: MIC Mtb. 9449/2006
[6] = test system: Mycobacterium kansasii 235/80; experiment: Antimycobacterial MIC micromethod; type: cell-based; conditions: read-out: MIC M. kansasii 235/80
[7] = test system: Mtb. Praha 1; experiment: microbe, parasite or virus in culture; type: cell-based; conditions: Mycobacterium tuberculosis, read-out: MIC Mtb. Praha 1
[8] = test system: Mtb. Praha 131 (XDR-TB); experiment: microbe, parasite or virus in culture; type: cell-based; conditions: Mycobacterium tuberculosis, read-out: MIC Mtb. Praha 131 (XDR-TB)
[9] = test system: Mycobacterium avium 330/88; experiment: Antimycobacterial MIC micromethod; type: cell-based
[10] = test system: M. kansasii 6509/96 (clinically isolated strain); experiment: Antimycobacterial MIC micromethod; type: cell-based; conditions: Mycobacterium kansasii, read-out: MIC M. kansasii 6509/96
[11] = target: T1, mycobacterial isocitrate lyase (ICL1, Rv0467) (Mycobacterium tuberculosis, UniProt P9WKK7); experiment: Isocitrate lyase inhibition assay (ICL1); type: biochemical, Mycobacterium tuberculosis H37Rv; conditions: 10 μmol/L; read-out: % ICL inhibition at 10 μmol/L (± standard deviation)
T1 construct: His tag (from pET-28b(+)); made in house; host or cells: E. coli BL21(DE3), pET-28b(+) plasmid
T1 sequence (P9WKK7 1-428): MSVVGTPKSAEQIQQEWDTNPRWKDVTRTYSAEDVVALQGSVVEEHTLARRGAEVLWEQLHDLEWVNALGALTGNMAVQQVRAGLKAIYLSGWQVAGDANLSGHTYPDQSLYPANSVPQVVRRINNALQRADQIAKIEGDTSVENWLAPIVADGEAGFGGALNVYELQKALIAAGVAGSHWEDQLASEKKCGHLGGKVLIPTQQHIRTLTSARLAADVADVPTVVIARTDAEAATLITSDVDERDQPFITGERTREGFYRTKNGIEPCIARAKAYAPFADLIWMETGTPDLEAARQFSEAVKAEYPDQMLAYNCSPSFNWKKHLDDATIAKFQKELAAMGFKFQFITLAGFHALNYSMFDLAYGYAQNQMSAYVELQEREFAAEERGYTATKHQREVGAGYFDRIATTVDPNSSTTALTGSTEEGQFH

[12] = test system: Staphylococcus aureus CCM 4516/08; experiment: Antibacterial microdilution broth method; type: cell-based; conditions: read-out: MIC/IC90 S. aureus CCM 4516/08
Method: as §1, §2

[13] = test system: Escherichia coli CCM 4517; experiment: Antibacterial microdilution broth method; type: cell-based; conditions: read-out: MIC/IC90 E. coli CCM 4517
Method: as §1, §2

[14] = test system: Staphylococcus epidermidis H 6966/08; experiment: Antibacterial microdilution broth method; type: cell-based; conditions: read-out: MIC/IC90 S. epidermidis H 6966/08
Method: as §1, §2

[15] = test system: Enterococcus sp. J 14365/08; experiment: Antibacterial microdilution broth method; type: cell-based; conditions: read-out: MIC/IC90 Enterococcus sp. J 14365/08
Method: as §1, §2

[16] = test system: methicillin-resistant Staphylococcus aureus H 5996/08 (MRSA); experiment: Antibacterial microdilution broth method; type: cell-based; conditions: read-out: MIC/IC90 MRSA H 5996/08
Method: as §1, §2

[17] = test system: Mycobacterium tuberculosis 331/88 (H37Rv); experiment: Antimycobacterial MIC micromethod, Šula's medium; type: cell-based; conditions: read-out: MIC Mtb. 331/88
[18] = test system: HepG2 cells; experiment: Cytotoxicity evaluation (CellTiter 96 MTS); type: cell-based, human; conditions: Homo sapiens, HepG2, 24 h, read-out: IC50 HepG2
Method: Seven esters and their parent salicylanilides with the most robust antimicrobial activity were tested for cytotoxicity in the human hepatocellular liver carcinoma cell line HepG2 (passages 21–24; ECACC, Salisbury, UK) using a standard colorimetric method measuring a tetrazolium salt reduction (CellTiter(R) 96 AQueous One Solution Assay, Promega G3580, Madison, WI, USA).
The cells were routinely cultured in Minimum Essentials Eagle Medium (Sigma-Aldrich, Darmstadt, Germany) supplemented with 10% foetal bovine serum (PAA; Biotech, Prague, Czech Republic), 1% of L-glutamine solution (Sigma-Aldrich), and non-essential amino acids solution (Sigma-Aldrich) in a humidified atmosphere containing 5% CO2 at 37 °C. For subculturing, the cells were harvested after trypsin/EDTA (Sigma-Aldrich) treatment at 37 °C. The cells treated with the tested substances were used as experimental groups. Untreated HepG2 cells were used as control groups.
The cells were seeded in density 1 × 10^4 cells per well in a 96-well plate with microscopic control. Next day, the cells were treated with each of the tested substances. […] The most of the tested compounds were prepared in incubation concentrations of 0.01–20 µM in triplicates. 4-(Trifluoromethyl)benzoic acid was applied in the concentrations of 10–4,000 µM in triplicates. The following types of controls were included: determination of 100% viability and 0% viability (the cells treated by 10% DMSO), no cell control and vehiculum controls. These checking samples were prepared in triplicates.
The treated cells were incubated together with controls at 37 °C for 24 h in 5% CO2 atmosphere. After this time reagent from the kit CellTiter 96 AQueous One Solution Cell Proliferation Assay was added. The CellTiter 96 assay is based on the reduction of tetrazolium salt MTS [3-(4,5-dimethylthiazol-2-yl)-5-(3-carboxymethoxyphenyl)-2-(4-sulfophenyl)-2H-tetrazolium] to water-soluble formazan dye by metabolically active cells. The reduction of the reagent is attributed to availability of NADH or NADPH. The decline in levels of these metabolically important compounds in the cell causes that the production of formazan is reduced. The tested plate was incubated for 2 h at 37 °C and 5% CO2 and after this time, the absorbance was recorded at 490 nm using a 96-well plate reader (TECAN, Infinite M200, Grödig, Austria).
The results were expressed as inhibitory concentration which is necessary to inhibit cell viability to 50% from the maximal (control) viability (IC50). A standard toxicological parameter IC50 was calculated in each of the tested substances using GraphPad Prism software (version 5.02; GraphPad Software Inc., San Diego, CA, USA).

Row | SMILES | MIC ([2]; 336 h) | MIC ([2]; 504 h) | MIC ([3]; 336 h) | MIC ([3]; 504 h) | MIC ([4]; 336 h) | MIC ([4]; 504 h) | MIC ([5]; 336 h) | MIC ([5]; 504 h) | MIC ([6]; 235/80, 168 h, 7 d) | MIC ([6]; 235/80, 336 h, 14 d) | MIC ([6]; 235/80, 504 h, 21 d) | MIC ([7]; 336 h) | MIC ([7]; 504 h) | MIC ([8]; 336 h) | MIC ([8]; 504 h) | MIC ([9]; 330/88, 336 h, 14 d) | MIC ([9]; 330/88, 504 h, 21 d) | MIC ([10]; 168 h, 7 d) | MIC ([10]; 336 h, 14 d) | MIC ([10]; 504 h, 21 d) | further results
1 | O=C(Oc1cc(Cl)ccc1C(=O)Nc1cccc(Cl)c1)c1ccc(C(F)(F)F)cc1 [1b] | 8 µM (≈ 3.63 µg/mL) | 8 µM (≈ 3.63 µg/mL) | 8 µM (≈ 3.63 µg/mL) | 8 µM (≈ 3.63 µg/mL) | 8 µM (≈ 3.63 µg/mL) | 8 µM (≈ 3.63 µg/mL) | 4 µM (≈ 1.82 µg/mL) | 4 µM (≈ 1.82 µg/mL) | 1 µM (≈ 0.454 µg/mL) | 4 µM (≈ 1.82 µg/mL) | 4 µM (≈ 1.82 µg/mL) | 4 µM (≈ 1.82 µg/mL) | 4 µM (≈ 1.82 µg/mL) | 8 µM (≈ 3.63 µg/mL) | 8 µM (≈ 3.63 µg/mL) | 8 µM (≈ 3.63 µg/mL) | 8 µM (≈ 3.63 µg/mL) | 2 µM (≈ 0.908 µg/mL) | 8 µM (≈ 3.63 µg/mL) | 8 µM (≈ 3.63 µg/mL) | MIC [1]: < 1 µM; inhibition at 10 µM [11]: 13 ± 1.7%; MIC ([12]; CCM4516, 24 h): 0.98 µM (≈ 0.445 µg/mL); MIC ([12]; CCM4516, 48 h): 1.95 µM (≈ 0.886 µg/mL); MIC ([13]; CCM4517, 24 h): > 250 µM; MIC ([13]; CCM4517, 48 h): > 250 µM; MIC ([14]; H6966/08, 24 h): 0.98 µM (≈ 0.445 µg/mL); MIC ([14]; H6966/08, 48 h): 1.95 µM (≈ 0.886 µg/mL); MIC ([15]; SP.J14365/08, 24 h): 7.81 µM (≈ 3.55 µg/mL); MIC ([15]; SP.J14365/08, 48 h): 15.6 µM (≈ 7.1 µg/mL); MIC ([16]; 24 h): 0.98 µM (≈ 0.445 µg/mL); MIC ([16]; 48 h): 1.95 µM (≈ 0.886 µg/mL); MIC ([17]; 336 h, 14 d): 4 µM (≈ 1.82 µg/mL); MIC ([17]; 504 h, 21 d): 4 µM (≈ 1.82 µg/mL)
2 | O=C(Oc1ccc(Cl)cc1C(=O)Nc1cccc(Br)c1)c1ccc(C(F)(F)F)cc1 [1g] | 2 µM (≈ 0.997 µg/mL) | 2 µM (≈ 0.997 µg/mL) | 2 µM (≈ 0.997 µg/mL) | 2 µM (≈ 0.997 µg/mL) | 1 µM (≈ 0.499 µg/mL) | 2 µM (≈ 0.997 µg/mL) | 1 µM (≈ 0.499 µg/mL) | 2 µM (≈ 0.997 µg/mL) | 2 µM (≈ 0.997 µg/mL) | 4 µM (≈ 1.99 µg/mL) | 4 µM (≈ 1.99 µg/mL) | 1 µM (≈ 0.499 µg/mL) | 2 µM (≈ 0.997 µg/mL) | 1 µM (≈ 0.499 µg/mL) | 2 µM (≈ 0.997 µg/mL) | 2 µM (≈ 0.997 µg/mL) | 8 µM (≈ 3.99 µg/mL) | 1 µM (≈ 0.499 µg/mL) | 4 µM (≈ 1.99 µg/mL) | 4 µM (≈ 1.99 µg/mL) | IC50 [18]: 2630 nM; inhibition at 10 µM [11]: ≥ 20%; MIC ([17]; 336 h, 14 d): 1 µM (≈ 0.499 µg/mL); MIC ([17]; 504 h, 21 d): 2 µM (≈ 0.997 µg/mL)
